Source: publication PMC7216583 (Parasites & Vectors, 2020)
Counter-ions that a name gives are not always drawn.

system: Toxoplasma gondii RH-2F tachyzoites; assay: microbe, parasite or virus in culture; conditions: 72 h, read-out: Parasite inhibition (%) mean

Point of comparison: `Nc1ncnc2nc[nH]c12` [Adenine sulfate], inhibition of growth at 5 µM 11.8%. Against it:
- CNC[C@H](O)c1ccc(O)c(O)c1 [L-Adrenaline (Epinephrine)] — lower, 0.4%
- C=CC(=O)Nc1cccc(Sc2nc(Nc3ccc(N4CCN(C)CC4)cc3)ncc2Cl)c1 [WZ8040] — lower, 2.8%
- O[C@@H](COc1cccc2ncccc12)CN1CCN([C@@H]2c3ccccc3[C@@H]3[C@H](c4ccccc42)C3(F)F)CC1 [LY335979 (Zosuquidar 3HCl)] — lower, -7.9%

same assay, conditions: 72 h, read-out: Parasite inhibition (%) mean, preliminary screen of compound library, mean

Point of comparison: `CC(C)N(CCNC(=O)CN1CCCC1=O)C(C)C` [Pramiracetam], inhibition of growth at 5 µM 24.1%. Against it:
- CN1C2=CC(=O)/C(=N\NC(N)=O)C=C2CC1S(=O)(=O)O (centres unmarked) [Carbazochrome sodium sulfonate] — lower, 1.2%
- CC(C)c1onc(-c2c(Cl)cccc2Cl)c1COc1ccc(/C=C/c2cccc(C(=O)O)c2)c(Cl)c1 [GW4064] — lower, -7.7%
- CCCCCCCCOc1ccccc1C(=O)Nc1ccc(C(=O)OCC[N+](C)(CC)CC)cc1 [Otilonium Bromide] — lower, 0.7%
- OC[C@@H](O)[C@@H](O)[C@H](O)[C@@H](O)CO [Sorbitol (Glucitol)] — lower, -66.9%
- CNCC(O)c1ccc(O)cc1 (centres unmarked) [Synephrine HCl] — lower, 3.7%
- C[C@@H](NCCCc1cccc(C(F)(F)F)c1)c1cccc2ccccc12 [AMG-073 HCl (Cinacalcet hydrochloride)] — lower, 2.4%
- CC(C)(CO)c1cc2cc(NC(=O)C3(c4ccc5c(c4)OC(F)(F)O5)CC3)c(F)cc2n1C[C@@H](O)CO [VX-661] — lower, 0.6%
- O=C(NCC1CCOCC1)c1cnc(Nc2ccc(Cl)cc2Cl)nc1C(F)(F)F [GW842166X] — lower, -12%
- CNC(=O)c1cccc(-c2ccc3c(N4CCOC[C@@H]4C)nc(N4CCOC[C@@H]4C)nc3n2)c1 [AZD2014] — higher, 45.5%
- Cc1cc(C2CCCCC2)n(O)c(=O)c1 [Ciclopirox (Penlac)] — higher, 33.4%
- OC[C@@H](O)[C@@H](O)[C@H](O)[C@H](O)CO [D-Mannitol (Osmitrol)] — lower, 0.2%
- C[C@H]1CCN(C(=O)CC#N)C[C@@H]1N(C)c1ncnc2[nH]ccc12 [Tofacitinib (CP-690550, Tasocitinib)] — lower, 11.2%
- COc1ccc(NS(=O)(=O)c2sc3ccc(Cl)cc3c2C)cc1N1CCNCC1 [SB 271046] — lower, -0.6%
- C[C@]12C=CC(=O)C=C1CC[C@@H]1[C@H]2C(=O)C[C@@]2(C)[C@H]1CC[C@@]2(O)C(=O)CO [Prednisone (Adasone)] — higher, 33.8%
- N#C[C@@H]1CCCN1C(=O)CNC12CC3CC(CC(O)(C3)C1)C2 [Vildagliptin (LAF-237)] — lower, -11.7%
- CCCNC(C)C(=O)Nc1ccccc1C (centres unmarked) [Prilocaine] — lower, -21.8%
- Cc1nc(NC(=O)N2CCC[C@H]2C(N)=O)sc1-c1csc(C(C)(C)C)n1 [A66] — lower, 0.9%
- Nc1nc2c(ncn2COCCO)c(=O)[nH]1 [Acyclovir (Aciclovir)] — lower, -55.5%
- CCCCCCOC(=O)/N=C(/N)c1ccc(NCc2nc3cc(C(=O)N(CCC(=O)OCC)c4ccccn4)ccc3n2C)cc1 [BIBR-1048 (Dabigatran)] — lower, 8.4%
- C=CCc1cc(OC)c(O)c(C(=O)NCCO)c1 [Alibendol] — lower, 0.1%
- Cc1c(C(=O)NN2CCCCC2)nn(-c2ccc(Cl)cc2Cl)c1-c1ccc(Cl)cc1 [Rimonabant (SR141716)] — lower, 5.1%
- C[N+]1(C)[C@@H]2C[C@@H](OC(=O)C(O)(c3cccs3)c3cccs3)C[C@H]1[C@@H]1O[C@@H]12 [Tiotropium Bromide hydrate] — lower, -0.7%
- Cc1cc(C)c(/C=C2\C(=O)Nc3ccccc32)[nH]1 [Semaxanib (SU5416)] — lower, -78.8%
- NCC(=O)CCC(=O)O [5-Aminolevulinic acid hydrochloride] — lower, 20.1%
- O=C1Cc2cc(CCN3CCN(c4nsc5ccccc45)CC3)c(Cl)cc2N1 [Ziprasidone hydrochloride] — higher, 33.7%
- C=CC(=O)N1CCC[C@@H](n2nc(-c3ccc(Oc4ccccc4)cc3)c3c(N)ncnc32)C1 [PCI-32765 (Ibrutinib)] — lower, -0.8%
- CC(C)C(=O)Oc1ccc(CO)cc1[C@H](CCN(C(C)C)C(C)C)c1ccccc1 [Fesoterodine fumarate (Toviaz)] — lower, 0.2%
- Nc1ccc(-c2ccc3ncc4ccc(=O)n(-c5cccc(C(F)(F)F)c5)c4c3c2)cn1 [Torin 2] — higher, 25.1%
- Cc1cc(SCc2sc(-c3ccc(C(F)(F)F)c(F)c3)nc2C)ccc1OCC(=O)O [GW0742] — lower, 23.4%
- Cc1onc(-c2ccccc2Cl)c1C(=O)N[C@@H]1C(=O)N2[C@@H](C(=O)O)C(C)(C)S[C@@H]12 [Cloxacillin sodium (Cloxacap)] — lower, 0.2%
- Clc1ccc(C(Cn2ccnc2)OCc2ccc(Sc3ccccc3)cc2)c(Cl)c1 (centres unmarked) [Fenticonazole nitrate] — lower, 19.8%
- C[C@@H](C(=O)O)c1ccc(-c2ccccc2)c(F)c1 [Flurbiprofen (Ansaid)] — lower, -23.7%
- Cc1ccc(O)c([C@H](CCN(C(C)C)C(C)C)c2ccccc2)c1 [Tolterodine tartrate (Detrol LA)] — lower, 2.2%
- O=C(CCCCCCNC(=O)c1cnc(N(c2ccccc2)c2ccccc2)nc1)NO [Rocilinostat (ACY-1215)] — lower, 2.9%
- O=S(=O)(O)Oc1ccc(C(c2ccc(OS(=O)(=O)O)cc2)c2ccccn2)cc1 [Sodium Picosulfate] — lower, 0.3%
- CN1CCN(c2c(F)cc3c(=O)c(C(=O)O)cn4c3c2OCN4C)CC1 [Marbofloxacin] — lower, 8.7%
- CCn1c(=O)c2c(nc(/C=C/c3ccc(OC)c(OC)c3)n2C)n(CC)c1=O [Istradefylline (KW-6002)] — lower, -1.9%
- CC(=O)OCC(=O)[C@]1(O)CC[C@H]2[C@@H]3CCC4=CC(=O)CC[C@]4(C)[C@@H]3C(=O)C[C@@]21C [Cortisone acetate (Cortone)] — higher, 44.8%
- CCc1cc2c(cc1N1CCC(N3CCOCC3)CC1)C(C)(C)c1[nH]c3cc(C#N)ccc3c1C2=O [CH5424802] — higher, 46.1%
- Oc1ccc([C@H]2COc3cc(O)ccc3C2)cc1 [Equol] — lower, -5.6%

same assay, conditions: 72 h, read-out: Parasite inhibition (%) mean, preliminary screen, mean

Point of comparison: `Nc1ccn([C@@H]2O[C@H](CO)[C@@H](O)C2(F)F)c(=O)n1` [Gemcitabine (Gemzar)], inhibition of growth at 5 µM 0.1%. Against it:
- COc1ccc(C[C@@H]2c3cc(OC)c(OC)cc3CC[N@+]2(C)CCC(=O)OCCCCCOC(=O)CC[N@@+]2(C)CCc3cc(OC)c(OC)cc3[C@H]2Cc2ccc(OC)c(OC)c2)cc1OC [Cisatracurium besylate (Nimbex)] — higher, 4.5%
- C[C@]1(c2nc3c(C(N)=O)cccc3[nH]2)CCCN1 [ABT-888 (Veliparib)] — higher, 50.5%
- Oc1nc(-c2ccc(C(F)(F)F)cc2)nc2c1CSCC2 [XAV-939] — lower, -38.8%
- O=C(O)c1ccc(Nc2ncc3c(n2)-c2ccc(Cl)cc2C(c2c(F)cccc2F)=NC3)cc1 [MLN8054] — higher, 58.4%
- Cc1cccc(Nc2nc(-c3ccncc3)cs2)c1 [STF-62247] — higher, 15.2%
- O=C(NOCC(O)CO)c1cc(Br)c(F)c(F)c1Nc1ccc(I)cc1F (centres unmarked) [PD318088] — lower, -12.9%
- CN(C)C/C=C/C(=O)Nc1cc2c(Nc3ccc(F)c(Cl)c3)ncnc2cc1O[C@H]1CCOC1 [Afatinib (BIBW2992)] — higher, 42.8%
- O=C(O)[C@H](CC(=O)N1C[C@H]2CCCC[C@H]2C1)Cc1ccccc1 [Mitiglinide calcium] — higher, 0.9%
- Cc1ccc2c(=O)c3cccc(CC(=O)O)c3oc2c1C [DMXAA (ASA404)] — lower, -33.6%
- CCC(=O)O[C@@H](OP(=O)(CCCCc1ccccc1)CC(=O)N1C[C@H](C2CCCCC2)C[C@H]1C(=O)O)C(C)C (some centres unmarked) [Fosinopril sodium (Monopril)] — higher, 21.3%
- CNS(=O)(=O)CCc1ccc2[nH]cc(C3CCN(C)CC3)c2c1 [Naratriptan HCl] — higher, 0.6%
- NC(=O)c1ccc(I)c([N+](=O)[O-])c1 [Iniparib (BSI-201)] — higher, 2.4%
- NC(=O)c1cn(Cc2c(F)cccc2F)nn1 [Rufinamide (Banzel)] — higher, 1.7%
- NCC1(CC(=O)O)CCCCC1 [Gabapentin HCl] — higher, 1.7%
- CNCc1ccc(-c2[nH]c3cc(F)cc4c3c2CCNC4=O)cc1 [Rucaparib (AG-014699 , PF-01367338)] — higher, 26.1%
- CCCCCCOC(=O)/N=C(/N)c1ccc(NCc2nc3cc(C(=O)N(CCC(=O)OCC)c4ccccn4)ccc3n2C)cc1 — higher, 1.2%
- Cc1nc(C(=O)NCC(=O)O)c(O)c2ccc(Oc3ccccc3)cc12 [FG-4592] — higher, 1.3%
- C[C@](O)(COc1ccc(C#N)cc1)C(=O)Nc1ccc(C#N)c(C(F)(F)F)c1 [Ostarine (MK-2866)] — higher, 0.7%
- CCCC(CCC)C(=O)O [Divalproex sodium] — higher, 1.4%
- CCCN1CCO[C@@H]2c3cc(O)ccc3OC[C@@H]21 [PD 128907 HCl] — higher, 1.8%
- CCC(COC(=O)c1cc(OC)c(OC)c(OC)c1)(c1ccccc1)N(C)C (centres unmarked) [Trimebutine] — higher, 1.4%
- Cc1cccc(Cc2c[nH]cn2)c1C [Detomidine HCl] — higher, 60.4%
- COc1ccc(S(=O)(=O)Nc2cccnc2Nc2ccc(O)cc2)cc1 [ABT-751] — higher, 22.7%
- CC(=O)Nc1ccc(OC[C@](C)(O)C(=O)Nc2ccc([N+](=O)[O-])c(C(F)(F)F)c2)cc1 [Andarine (GTX-007)] — lower, -18.7%
- C[C@@H](N)[C@H]1CC[C@H](C(=O)Nc2ccncc2)CC1 [Y-27632 2HCl] — lower, -4.8%
- O=c1[nH]cnc2[nH]ncc12 [Allopurinol Sodium (Aloprim)] — lower, -0.7%
- CCN(CC)CC#CCOC(=O)C(O)(c1ccccc1)C1CCCCC1 (centres unmarked) [Oxybutynin (Ditropan)] — lower, -3.2%
- Cc1nc(Nc2ncc(C(=O)Nc3c(C)cccc3Cl)s2)cc(N2CCN(CCO)CC2)n1 [Dasatinib (BMS-354825)] — higher, 10.5%
